In patent publication US20140220112A1, “TRANSFORMATION OF DRUG CYCLODEXTRIN COMPLEX COMPOSITIONS INTO COMPOSITIONS OF MIXTURES OF LIPID VESICLE ENCAPSULATED DRUG AND CYCLODEXTRIN DRUG COMPLEXES” (Zoneone Pharma, Inc., priority 2013, published 2014):
Several values for one entry are separate records, joined by “and”; a condition that tells them apart may be missing. Equal values may be shown once. Each block holds one molecule with its values, some of them ahead of it.

How the values were obtained:
[1] = Incorporation of maropitant from Cerenia (SBCD) into lyophilized MLV with encapsulated triethylamine sulfate; type: physicochemical; details: MLV POPC/Chol/DSPG, 60° C. 30 minutes
Experimental: Maropitant citrate is used for the prevention of acute vomiting in dogs and cats. The MLV formulation described in example 4 is prepared with 250 mM triethylamine sulfate in place of ammonium sulfate. The formulation is lyophilized to provide a cake consisting of 120 mg sucrose and a 1.2 μmoles total lipid of a liposome with a lipid composition of POPC/Chol/DSPG mole ratio 3/2/0.15 with a higher concentration of triethylamine sulfate on the inside than on the outside. The contents of the 20 mL Cerenia® Injectable Solution vial which contains 10 mg maropitant, 63 mg sulphobutylether-beta-cyclodextrin, 3.3 mg meta-cresol per mL is slowly added to the vial of lyophilized liposomes and the vial is slowly rotated to rehydrate the MLV at room temperature. The milky white mixture is allowed to stand at 60° C. for 30 minutes. The percent of the maropitant that is incorporated into the liposome is about 60% of the total maropitant in the vial. […] Approximately 40% of the drug remains associated with the SBCD. This formulation is suitable for subcutaneous injection to prevent vomiting associated with chemotherapy.

[2] = Loading of carfilzomib from the lyophilized Kyprolis vial into the core of added LUV; type: physicochemical
Experimental: A 30 mL preparation of LUVs composed of HSPC/Cholesterol/PEG2000-DSPE at lipid concentration of 15 mM lipid (circa 300 mg lipid) is prepared by the extrusion process through 100 nm polycarbonate membranes in a 250 mM ammonium sulfate solution to yield a 100 nm diameter LUV suspension of encapsulated ammonium sulfate. The LUV are dialyzed against 500 volumes of 0.15 M NaCl to remove non-encapsulated ammonium sulfate. The liposome suspension is then passed through a 0.2 micron sterile membrane into a sterile tube. The liposome solution (29 mL) is added aseptically to the vial containing 60 mg of carfilzomib at room temperature. The vial is gently mixed not shaken, for about 1 minute, or until the cake or powder is completely solubilized. The rehydrated solid is incubated for 40 minutes at 37° C. The carfilzomib is substantially loaded (>60%) into the core of the liposome at the end of the incubation period. The 100 nm diameter of the liposomes is not altered by this rehydration incubation process. The temperature of the vial is then reduced to 4° C. until the mixture of CD, drug-loaded liposome are injected into the subject.
The pharmacokinetic behavior of preparation of carfilzomib can be easily modulated by adjusting the amount of LUV containing ammonium sulfate or triethylamine sulfate that are added to the vial of Kyprolis®. […]

[3] = cited from earlier work
[4] = Encapsulation of aripiprazole from Abilify (SBECD solution) into LUV, liquid/liquid protocol; type: physicochemical; details: LUV HSPC/Cholesterol/PEG-DSPE
Experimental: (§1) A portion of the lyophilized cake of GEODON® (Pfizer) was weighed out and dissolved in deionized water. The amount of the active ingredient (ziprasidone) was calculated by multiplying the cake weight by 0.0625 and added to liposomes from a 1 mg/mL solution. In certain experiments the lyophilized cake was reconstituted with the aqueous liposome preparation at defined lipid to drug ratios (liquid/liquid system). In other cases the lyophilized cake was directly rehydrated with the liposome suspension (liquid/solid system). The LUV were diluted with 5 mM Hepes, 10% sucrose pH 6.5. The liposome/drug solution was transferred to a 65° C. bath and swirled every 30 s for the first 3 min and then swirled every 5 min over a total heating time of 30 min. After heating for 30 min all samples were placed on ice for 15 min. the loaded liposomes were vortexed and 100 μL of sample was kept as the “before column” and the rest purified by ion exchange chromatography and gel filtration chromatography. Amberlite IRA-67 anion exchange resin was prepared by washing with 1N NaOH, followed by 3 washes with ddH2O and 3 washes with 3N HCl. The resin was exhaustively washed with dH2O until the pH of the supernatant was neutral. The SBCD was removed by adding 70 mg of resin to the eppendorf containing the liposomes and mixed well. The LUV solution was then purified by gel filtration chromatography (Sephadex G25) to remove residual extraliposomal drug. The turbid liposome fraction was collected and analyzed by HPLC.
ABILIFY® Injection is available in single-dose vials as a ready-to-use, 9.75 mg/1.3 mL (7.5 mg/mL) clear, colorless, sterile, aqueous solution for intramuscular use only. […] The active ingredient in Abilify® (Bristol-Myers), aripiprazole (7.5 mg/mL) was introduced to the LUV (HSPC/Cholesterol/PEG-DSPE: 3/2/0.15 mole ratio) at a drug to total lipid ratio of 50 g drug/mol HSPC (drug to total lipid ratio (wt/wt) of 0.12) or 100 g/mol (0.24 wt/wt) or 200 g/mol (0.48 wt/wt). […]

[5] = Loading of hydroxypropyl cyclodextrin solubilized SN-38 into LUV containing acetate-PEI salt; type: physicochemical; details: LUV 20 mM total lipid, 12 hours at room temperature
Experimental: Lipids are dissolved in ethanol at a concentration of 500 mM POPC/Cholesterol/PEG-DSPE: 3/2/0.15 (591 mg/mL total lipid) at 65° C. and the 9 volumes of the trapping agent solution, polyethyleneimine (PEI) MW 1300 titrated to pH 7.4 with glacial acetic acid to form the acetate polyethyleneimine salt, is heated to 65° C. then added to the ethanol/lipid solution also at 65° C. This mixture is vortexed and transferred to a 10 mL thermostatically controlled (65° C.) Lipex Extruder. The LUV are formed by extruding 10 times through polycarbonate membranes having 0.1 um pores. After extrusion, the LUV are cooled on ice. A transmembrane electrochemical gradient is formed by placing the liposomes in dialysis tubing having a molecular weight cut off of 12,000-14,000. The samples are dialyzed against 5 mM HEPES, 10% sucrose pH 6.5 (stirring at 4° C.) at volume that is 100-fold greater than the liposome sample volume. The dialysate is changed after 2 h then 4 more times after 12 h each. The conductivity of the liposome solution was measured and was indistinguishable from the dialysis medium ˜40 μS/cm.
The LUV (20 mM total lipid containing a greater concentration of acetate-PEI salt on the inside than on the outside) are mixed with the hydroxypropyl cyclodextrin solubilized SN-38 (24 mg/mL hydroxylpropylcyclodextrin and 2 mg/mL SN-38) and allowed to incubate for 12 hours at room temperature. […]

[6] = Encapsulation of ziprasidone from Geodon (SBCD complex) into ammonium sulfate LUV liposomes, HPLC after purification; type: physicochemical; details: 65° C. 30 min; for % ziprasidone entrapped in liposome from suspension of ziprasidone: liquid/liquid system; for % ziprasidone entrapped in liposome from reconstitution of Geodon cake: liquid/solid system
Experimental: Alternatively, lipids were dissolved in ethanol at a concentration of 500 mM HSPC/Cholesterol/PEG-DSPE: 3/2/0.15 (591 mg/mL total lipid) at 65° C. and the 9 volumes of the trapping agent solution heated to 65° C. was added to the ethanol/lipid solution also at 65° C. and the mixture was vortexed and transferred to a 10 mL thermostatically controlled (65° C.) Lipex Extruder. The LUV were formed by extruding 10 times through polycarbonate membranes having 0.1 um pores. After extrusion the liposomes were cooled on ice. The transmembrane electrochemical gradient was formed by purification of the liposomes by dialysis in dialysis tubing having a molecular weight cut off of 12,000-14,000. The samples are dialyzed against 5 mM HEPES, 10% sucrose pH 6.5 (stirring at 4° C.) at volume that is 100 fold greater than the sample volume. The dialysate was changed after 2 h then 4 more times after 12 h each. The conductivity of the liposome solution was measured and was indistinguishable from the dialysis medium […].
The HPLC analysis of all other drugs used (such as ziprasidone, ariprazole, voriconazole etc) was performed on the same system as described for analysis of cholesterol. The mobile phase consists of −A=0.1% TFA, B=0.1% TFA/MeOH with a gradient elution starting at 40% B and increasing to 70% B in 7 min with 6 min equilibration back to 40% B. The flow rate is 1.0 mL/min, column temperature is 30 C, 10 μL injection and detection by absorbance at 254 nm. The retention times were as follows: ziprasidone 5.73 min, ariprazole 8.12 min, voriconazole 8.81 min.
as §1

[7] = input drug-to-lipid 100 ug/umol
[8] = input drug-to-lipid 200 ug/umol

SMILES: COc1ccc(C(C)(C)C)cc1CN[C@H]1C2CCN(CC2)[C@H]1C(c1ccccc1)c1ccccc1 [maropitant]
percent of the drug remaining associated with the SBCD [1]: Approximately 40%
percent of the maropitant incorporated into the liposome, of total maropitant in the vial [1]: about 60%
resulting drug to lipid ratio [1]: about 140 grams/mole lipid

SMILES: CCc1c2c(nc3ccc(O)cc13)-c1cc3c(c(=O)n1C2)COC(=O)[C@]3(O)CC [SN-38, 7-Ethyl-10-Hydroxy-Camptothecin]
SN-38 transferred into the liposome, % of the added SN-38 [5]: approximately 50%

Continued, in another order:

carfilzomib loaded into the core of the liposome ([2]; Kyprolis vial 60 mg + 29 mL LUV (circa 300 mg lipid), ammonium sulfate, 40 minutes at 37° C.): > 60%
amount of carfilzomib that remains complexed to the CD, fraction of total amount in the vial ([2]; liposomes added decreased from 300 mg to 200 mg of total lipid): about one-half
SMILES: CC(C)C[C@H](NC(=O)[C@H](CCc1ccccc1)NC(=O)CN1CCOCC1)C(=O)N[C@@H](Cc1ccccc1)C(=O)N[C@@H](CC(C)C)C(=O)[C@@]1(C)CO1 [carfilzomib]
solubility in water [3]: less than 10 micrograms/mL

% aripiprazole entrapped in liposome when transferred from Abilify ([4]; input drug-to-lipid 50 ug/umol): 60.16 ± 3.57%
% aripiprazole entrapped in liposome when transferred from Abilify [4, 7]: 48.4% and 48.36 ± 3.78%
% aripiprazole entrapped in liposome when transferred from Abilify [4, 8]: 43.2% and 43.22 ± 2.09%
SMILES: O=C1CCc2ccc(OCCCCN3CCN(c4cccc(Cl)c4Cl)CC3)cc2N1 [aripiprazole]

% ziprasidone entrapped in liposome from suspension of ziprasidone ([6]; input drug-to-lipid 50 ug/umol): 87.92 ± 2.35%
% ziprasidone entrapped in liposome from reconstitution of Geodon cake ([6]; input drug-to-lipid 50 ug/umol): 90.42 ± 2.91%
% ziprasidone entrapped in liposome from reconstitution of Geodon cake ([6]; input drug-to-lipid 50 ug/umol, listed as Geodon): 90.4%
% ziprasidone entrapped in liposome from suspension of ziprasidone [6, 7]: 84.24 ± 3.14%
% ziprasidone entrapped in liposome from reconstitution of Geodon cake [6, 7]: 75.50 ± 2.91%
% ziprasidone entrapped in liposome from reconstitution of Geodon cake ([6]; input drug-to-lipid 100 ug/umol, listed as Geodon): 75.5%
% ziprasidone entrapped in liposome from suspension of ziprasidone [6, 8]: 80.38 ± 3.61%
% ziprasidone entrapped in liposome from suspension of ziprasidone ([6]; input drug-to-lipid 200 ug/umol, listed as Geodon): 80.4%
% ziprasidone entrapped in liposome from reconstitution of Geodon cake [6, 8]: 62.68 ± 3.27%
% ziprasidone entrapped in liposome from reconstitution of Geodon cake ([6]; input drug-to-lipid 400 ug/umol): 67.40 ± 3.88%
% ziprasidone entrapped in liposome from reconstitution of Geodon cake ([6]; input drug-to-lipid 400 ug/umol, listed as Geodon): 67.4%
% ziprasidone entrapped in liposome from reconstitution of Geodon cake ([6]; input drug-to-lipid 800 ug/umol): 41.38 ± 0.81%
SMILES: O=C1Cc2cc(CCN3CCN(c4nsc5ccccc45)CC3)c(Cl)cc2N1 [ziprasidone]
